# Calls of active or inactive are those of the source. Rule as the data show it, for most assays here: actives have a measured EC50 and inactives only a lower limit.
# How the values were obtained:
# [1] = luciferase reporter signal suppression in cells – H4 neuroglioma cells, luminescence, dose response (AID 1990); format: functional, cell-based
# [2] = biological target: T1, RNA-binding protein pos-1 (Caenorhabditis elegans, UniProt G5EF15); assay: disruptors of C. elegans POS-1 RNA interaction – biochemical, fluorescence polarization, dose response (AID 1964);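 also: purified POS-1 fused to maltose binding protein made in E. coli; potency of compounds blocking POS-1 binding to fluorescent RNA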
# T1 sequence (G5EF15 whole entry): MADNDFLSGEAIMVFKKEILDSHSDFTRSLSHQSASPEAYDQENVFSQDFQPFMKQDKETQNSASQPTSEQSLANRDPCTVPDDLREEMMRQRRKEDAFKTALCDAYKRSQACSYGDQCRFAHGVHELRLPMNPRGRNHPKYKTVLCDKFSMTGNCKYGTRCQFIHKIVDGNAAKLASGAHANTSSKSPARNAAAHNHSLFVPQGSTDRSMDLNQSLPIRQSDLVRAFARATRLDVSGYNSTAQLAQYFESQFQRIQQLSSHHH
# [3] = Luminescence Cell-Based Dose Response HTS to Identify Inhibitors of 5'UTR Stem-Loop Driven Prion Protein mRNA Translation in H4 Neuroglioblastoma Cells. [Related pubchem assays: 1827 (Project Summary), 1813 (Primary HTS)]; format: functional
# [4] = biological target: T2, Zinc finger protein mex-5 (Caenorhabditis elegans, UniProt Q9XUB2); assay: potency of MEX-5 RNA-binding blockers – biochemical, C. elegans, fluorescence polarization, dose response (AID 1960)
# T2 sequence (Q9XUB2 whole entry): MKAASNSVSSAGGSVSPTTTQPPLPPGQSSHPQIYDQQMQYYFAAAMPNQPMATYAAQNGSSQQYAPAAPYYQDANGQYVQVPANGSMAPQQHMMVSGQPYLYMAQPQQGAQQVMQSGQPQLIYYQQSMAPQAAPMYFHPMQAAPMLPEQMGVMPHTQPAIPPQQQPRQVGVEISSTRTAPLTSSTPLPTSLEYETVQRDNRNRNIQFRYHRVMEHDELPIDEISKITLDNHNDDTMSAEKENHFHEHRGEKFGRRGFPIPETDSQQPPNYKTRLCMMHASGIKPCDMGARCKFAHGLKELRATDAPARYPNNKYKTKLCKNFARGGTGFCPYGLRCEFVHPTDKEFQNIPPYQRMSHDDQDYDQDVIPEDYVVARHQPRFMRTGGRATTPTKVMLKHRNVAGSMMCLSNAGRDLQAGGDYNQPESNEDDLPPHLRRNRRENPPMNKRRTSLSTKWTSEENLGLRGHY
# [5] = alpha-synuclein stem-loop luciferase translation blockers – H4 neuroglioma cells, luminescence, confirmation (AID 1988); format: functional, cell-based
# [6] = Trypanosoma cruzi growth suppression in host cells – NIH3T3 host cells, beta-gal luminescence, confirmation (AID 2044); format: functional, cell-based;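 also: intracellular parasites grown in NIH/3T3 mouse fibroblasts as host cells; luminescent beta-galactosidase reporter signal from transgenic T. cruzi replicating inside host cells; inhibitors lower the luminescence signal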
# [7] = NIH3T3 cell viability loss – ATP luminescence, mouse fibroblasts, counter-screen, dose response (AID 2010); format: functional, cell-based;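 also: cells exposed to compound for about 90 hours before reading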
# [8] = Luminescence Cell-Based Dose Retest to Confirm Inhibitors of Cancer Stem Cells. [Related pubchem assays (depositor defined):AID2717, AID2721]; format: functional; conditions: Homo sapiens
# [9] = biological target: T3, Heat shock factor protein 1 (Mus musculus, UniProt P38532); assay: enhancement of HSF1-driven luciferase signal – cell-based, NIH3T3, luminescence, dose retest, confirmation (AID 435004); format: functional;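 also: stress induced by proteasome inhibitor MG132 added 30 min after compound; luciferase reporter driven by HSF1 response element in NIH3T3 cells; actives raise luminescence as potentiators of the MG132 stress response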
# T3 sequence (P38532 whole entry): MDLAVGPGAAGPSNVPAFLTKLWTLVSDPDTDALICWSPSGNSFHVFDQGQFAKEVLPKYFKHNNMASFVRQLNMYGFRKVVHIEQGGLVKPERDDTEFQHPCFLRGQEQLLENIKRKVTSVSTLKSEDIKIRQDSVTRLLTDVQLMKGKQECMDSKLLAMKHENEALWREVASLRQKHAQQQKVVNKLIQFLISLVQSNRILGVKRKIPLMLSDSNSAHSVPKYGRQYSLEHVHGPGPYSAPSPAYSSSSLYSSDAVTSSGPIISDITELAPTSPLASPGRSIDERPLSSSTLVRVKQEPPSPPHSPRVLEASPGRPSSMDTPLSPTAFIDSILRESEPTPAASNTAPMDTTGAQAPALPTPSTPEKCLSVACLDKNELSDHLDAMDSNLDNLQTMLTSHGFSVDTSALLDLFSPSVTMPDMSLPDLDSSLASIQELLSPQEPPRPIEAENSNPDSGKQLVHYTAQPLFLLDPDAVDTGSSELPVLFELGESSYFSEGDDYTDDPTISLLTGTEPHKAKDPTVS
# [10] = biological target: T4, Short transient receptor potential channel 4 (Mus musculus, UniProt Q9QUQ5); assay: block of DAMGO-driven TRPC4 calcium entry – cell-based, HEK293 TRPC4/mu-opioid, Fluo-4 calcium, dose response (AID 434942); format: functional;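 also: potency of inhibitors blocking the TRPC4 calcium response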
# T4 sequence (Q9QUQ5 whole entry): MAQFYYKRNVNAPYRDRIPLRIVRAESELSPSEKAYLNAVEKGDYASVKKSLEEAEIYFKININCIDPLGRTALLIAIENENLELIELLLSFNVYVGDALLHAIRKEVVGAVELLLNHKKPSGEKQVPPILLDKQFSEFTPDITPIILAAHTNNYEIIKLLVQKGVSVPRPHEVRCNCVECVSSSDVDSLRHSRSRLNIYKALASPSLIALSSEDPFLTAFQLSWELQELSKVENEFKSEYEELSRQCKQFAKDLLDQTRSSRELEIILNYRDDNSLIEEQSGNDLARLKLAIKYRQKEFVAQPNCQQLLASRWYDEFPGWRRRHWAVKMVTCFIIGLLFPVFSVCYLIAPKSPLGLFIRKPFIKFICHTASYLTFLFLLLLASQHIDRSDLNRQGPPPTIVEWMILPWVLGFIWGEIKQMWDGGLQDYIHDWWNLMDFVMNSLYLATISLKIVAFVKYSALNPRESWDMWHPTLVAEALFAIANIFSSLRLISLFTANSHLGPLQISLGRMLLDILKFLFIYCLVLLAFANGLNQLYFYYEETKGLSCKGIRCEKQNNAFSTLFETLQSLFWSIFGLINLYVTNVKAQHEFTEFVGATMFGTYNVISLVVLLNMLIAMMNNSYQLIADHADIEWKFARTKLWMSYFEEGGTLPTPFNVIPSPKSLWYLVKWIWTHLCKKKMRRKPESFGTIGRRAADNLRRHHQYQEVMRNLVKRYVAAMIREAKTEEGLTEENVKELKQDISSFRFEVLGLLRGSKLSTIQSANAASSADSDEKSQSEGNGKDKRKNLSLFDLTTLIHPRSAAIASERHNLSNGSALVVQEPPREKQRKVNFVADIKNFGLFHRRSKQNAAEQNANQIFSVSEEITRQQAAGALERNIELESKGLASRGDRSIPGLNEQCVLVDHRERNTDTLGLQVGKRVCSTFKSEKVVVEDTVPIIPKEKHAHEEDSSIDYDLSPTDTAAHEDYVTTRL
# [11] = viability of PTEN-deleted HCT116 cells – cell-based, HCT116 PTEN knockout, dose response (AID 1047); format: functional;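 also: HCT116 colon tumor cells with PTEN knocked out; cells exposed to compound for 60 hours before readout; potency for loss of cell viability measured by luminescence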
# [12] = viability of HCT116 lacking mutant beta-catenin – cell-based, human colon tumor, dose response (AID 1045); format: functional;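 also: HCT116 colon tumor cells with beta catenin knocked out; cells exposed to compound for 60 hours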
# INS1 = assay: INS-1E survival protection against cytokine death – cell-based, luminescence, retest, dose response (AID 449756); format: functional; conditions: Rattus norvegicus;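 also: cell death triggered by IL-1 beta plus TNF-alpha plus IFN-gamma mixture; protective hits raise ATP signal compared with cytokine alone wells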
# [13] = biological target: FAD-linked sulfhydryl oxidase ALR (Homo sapiens, UniProt P55789); assay: ALR-catalysed DTT oxidation blockers – biochemical, H2O2 detection, luminescence, cherry-pick, dose response (AID 493248)
# [14] = P. falciparum Dd2 growth inhibitors, dose response, SYBR Green, cherry-picked samples (AID 1159567); format: functional, cell-based
# Chain of FAD-linked sulfhydryl oxidase ALR (P55789 whole entry): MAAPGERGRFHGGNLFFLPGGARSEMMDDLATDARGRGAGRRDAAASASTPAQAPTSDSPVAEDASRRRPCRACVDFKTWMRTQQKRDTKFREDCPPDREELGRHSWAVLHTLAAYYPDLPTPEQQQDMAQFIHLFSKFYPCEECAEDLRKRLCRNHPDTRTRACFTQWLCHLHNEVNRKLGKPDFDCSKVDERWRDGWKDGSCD
smiles,measurement,setting,value
N=c1c(S(=O)(=O)c2ccc(Cl)cc2)cc2c(=O)n3ccccc3nc2n1C1CCCC1,EC50,[1],24.8 µM (active)
same,EC50,[2],135 µM (active)
same,EC50,[3],> 120 µM (not active)
same,EC50,[4],148 µM (inconclusive)
same,EC50,[5],31.7 µM (active)
same,EC50,[6],0.87 µM (active)
same,EC50,[7],11.4 µM (active)
CC(Oc1cccc(Cl)c1)C(=O)Nc1ccc([N+](=O)[O-])cn1 (stereo not drawn),EC50,[1],21.4 µM (active)
same,EC50,[3],> 120 µM (not active)
same,EC50,[5],59.8 µM (active)
CCC(C)n1ncn(-c2ccc(N3CCN(c4ccc(O)cc4)CC3)cc2)c1=O (stereo not drawn),EC50,[1],> 120 µM (not active)
same,EC50,[3],19.7 µM (active)
same,AC50,[8],1.2 µM (active)
CC(Sc1nnc2ccccn12)C(N)=O (stereo not drawn),EC50,[9],> 260 µM (inactive)
CCOC(=O)c1c(NC(=O)C2CCCCC2C(=O)O)sc2c1CCCCC2 (stereo not drawn),EC50,[10],5.96 µM (active)
Cc1cc(C)cc(C(=O)NC(=S)Nc2ccc(-c3cc4ccccc4oc3=O)cc2)c1,EC50,[11],11.7 µM (active)
same,EC50,[12],12.4 µM (active)
Cc1ccc(S(=O)(=O)NC(=O)Nc2ccc(C)cn2)cc1,EC50,[9],> 260 µM (inactive)
CC(Oc1ccc(F)cc1Br)c1nc(O)c2ccccc2n1 (stereo not drawn),EC50,[9],74.4 µM (active)
CC1(C)CN(c2cccc(Br)c2)C1=O,EC50,[9],> 260 µM (inactive)
CC(=O)Nc1ccccc1OC(C)C(=O)N1CC(C)CC(C)C1 (stereo not drawn),EC50,[9],> 260 µM (inactive)
Cc1cccc2cc(CN(Cc3nnnn3Cc3ccccc3)C3CCCC3)c(O)nc12,EC50,[10],0.149 µM (active)
CC(=O)Nc1cccc(C(=O)/C=C/c2cccs2)c1,EC50,[11],11.3 µM (active)
same,EC50,[12],7.79 µM (active)
Cc1cccc(NC(=O)Nc2cccc(Oc3c(F)c(F)c(F)c(F)c3F)c2)c1,EC50,[6],3.06 µM (active)
same,EC50,[11],17.3 µM (active)
same,EC50,[7],7.63 µM (active)
same,EC50,[12],24.5 µM (active)
same,AC50,INS1,4.92 µM (active)
CCC1CCCCN1C(=O)COC(=O)c1cc2ccccc2cc1O (stereo not drawn),EC50,[9],> 260 µM (inactive)
CN(C)S(=O)(=O)Oc1ccsc1C(=O)Nc1ccccc1Cl,EC50,[1],> 120 µM (not active)
same,EC50,[3],> 120 µM (not active)
same,EC50,[5],15.7 µM (active)
COc1ccccc1N1CCN(C(=O)Cn2nc(C(F)(F)F)c3c2CCC3)CC1,EC50,[1],> 120 µM (not active)
same,EC50,[3],> 120 µM (not active)
same,EC50,[5],> 120 µM (not active)
Cc1ccc(C)c(N2CCN(CCCNC(=O)Cn3cc4c(n3)CCCCC4)CC2)c1,EC50,[11],14.5 µM (active)
same,EC50,[12],11.8 µM (active)
O=C(COC(=O)/C=C/c1ccc(Br)o1)NCCCN1CCCC1=O,EC50,[9],> 260 µM (inactive)
O=C(CC1C=Cc2ccccc2N1C(=O)c1ccccc1)c1ccccc1 (stereo not drawn),EC50,[9],> 260 µM (inactive)
CCCCN1C(=O)/C(=C/c2c[nH]nc2-c2ccccc2)SC1=S,EC50,[9],> 260 µM (inactive)
CCO/C(O)=C1\C(C)=Nc2sc(C(=O)c3ccc(C)cc3)c(N)c2C1c1ccc(C(=O)OC)cc1 (stereo not drawn),EC50,[1],> 120 µM (not active)
same,EC50,[3],> 120 µM (not active)
same,EC50,[5],> 120 µM (not active)
Cc1ccc(C(=O)O/N=C(\N)Cc2cccc3ccccc23)cc1,EC50,[9],> 260 µM (inactive)
COc1ccc(F)cc1S(=O)(=O)Nc1ccc2c(c1)OCO2,EC50,[9],> 260 µM (inactive)
COc1cnn(-c2cc(Oc3ccc(C)cc3)ncn2)c(=O)c1Cl,EC50,[9],> 260 µM (inactive)
COc1cc(C(=O)Nc2nc(-c3ccc(Cl)cc3)c(C)s2)ccc1OCC(=O)Nc1ccc(F)cc1,EC50,[11],1.92 µM (active)
same,EC50,[12],1.46 µM (active)
CCOc1c(Cl)cc(CNC(C)C(O)c2ccccc2)cc1OC (stereo not drawn),EC50,[10],1.33 µM (active)
CC(=O)Nc1ccc(NC2CCCCC2NS(=O)(=O)c2ccccc2)cc1 (stereo not drawn),AC50,[13],0.736 µM (active)
Cc1c(CN2CCC(n3nccc3NC(=O)CCc3ccccc3)CC2)cnn1C,EC50,[10],0.421 µM (active)
COc1cccc2cc(/C(=N/O)c3ccc(Br)cc3)oc12,EC50,[1],14.6 µM (active)
same,EC50,[3],18.6 µM (active)
same,EC50,[5],12.8 µM (active)
Cc1ccc(NC(=O)COc2ccc(/C=C3/S/C(=N/c4ccccc4)N(Cc4cccnc4)C3=O)cc2)cc1,EC50,[1],> 120 µM (not active)
same,EC50,[2],> 300 µM (not active)
same,EC50,[3],> 120 µM (not active)
same,EC50,[4],> 300 µM (not active)
same,EC50,[5],> 120 µM (not active)
C[C@@H]1CN([C@@H](C)CO)C(=O)c2cccc(NC(=O)C3CC3)c2O[C@H]1CN(C)Cc1ccc(-c2ccccc2)cc1,AC50,[14],3.44 µM (active)
COc1cccc(-c2cn(CC[C@@H]3CC[C@H](NS(=O)(=O)c4ccccc4Cl)[C@H](CO)O3)nn2)c1,AC50,[14],7.33 µM (active)
COc1ccccc1CN1C[C@@H](C)[C@H](OC)CN(C)C(=O)c2cc(NC(=O)Nc3ccccc3OC)ccc2OC[C@H]1C,AC50,[14],4.12 µM (active)

# — ChEMBL document CHEMBL1201862, “PubChem BioAssay data set” (2004)
